These results are taken from publication PMC12040169 (PLOS Biology, 2025).

The first data set in a line: in vitro. As to conditions: human, hela cells.
For orientation: viability means a read-out of living cells in per cent, often relative to untreated cells. On to `O=C(O)CP(=O)(O)c1ccc(Cl)cc1` [CBK019291], for which the viability at 28.5 h, 10 µM was determined as 102%.

Staying with this data set, now noted: human, hela cells, % viability.
For `CN1[C@@H]2CC[C@H]1C[C@@H](N1Cc3cc4ccccc4n3C1=O)C2` [CBK017722], the viability at 28.5 h, 10 µM worked out at 124%.
In the case of `Oc1ccc(CCNc2ncnc3[nH]cnc23)cc1` [CBK017724C], the viability at 28.5 h, 10 µM turned out to be 101%.
For the compound `CC(NC(C)(C)C)C(O)COc1ccc(Cl)c2c1C1CCC2CC1` (stereo not shown) [CBK017752C], the viability at 28.5 h, 10 µM turned out to be 89.6%.
For `CC(O)(CC(=O)O)CC(=O)OCCc1ccc2c(c1)CCC2` (stereo not shown) [CBK017766], the viability at 28.5 h, 10 µM worked out at 95.2%.
Consider `O=C(CCN1CCCCC1)Nc1ccc2c(=O)n3c(nc2c1)/C(=C/c1ccccc1)CC3` [CBK017786], for which the viability at 28.5 h, 10 µM was 94.1%.
For `Cc1cc2oc(=O)c3c(c2cc1C)CCN(C)C3` [CBK017803], the viability at 28.5 h, 10 µM came out at 97%.
Consider `CN1Cc2ccccc2-c2ccc(O)cc21` [CBK017804], for which the viability at 28.5 h, 10 µM came to 97.2%.
Turning to `CN1CCC2(CC1)SC(=O)Nc1ccc(Br)cc12` [CBK017821B], the viability at 28.5 h, 10 µM was 100%.
Consider `CCCN(CCc1ccc(C(F)(F)F)cc1)C1Cc2cc(OC)c(OC)cc2C1` [CBK017829C], for which the viability at 28.5 h, 10 µM was determined as 103%.
Turning to `O=C1CN(C(=O)c2cccc(Cl)c2)c2ccccc2N1` [CBK017844], the viability at 28.5 h, 10 µM is 101%.
As to `O=C(O)CN1C(=O)S/C(=C\c2ccc([N+](=O)[O-])o2)C1=O` [CBK017858], the viability at 28.5 h, 10 µM worked out at 97.7%.
Turning to `COc1cc(C(CC(C)NC(C)(C)C)c2ccccc2)ccc1OCc1ccccc1` (stereo not shown) [CBK017901], the viability at 28.5 h, 10 µM came out at 79.8%.
`Cc1ccc(OCc2ccccc2)c(C(CCN(C(C)C)C(C)C)c2ccccc2)c1` (stereo not shown) [CBK017906]: the viability at 28.5 h, 10 µM is 108%.
Turning to `O=C(O)c1cc2cc(F)ccc2[nH]1` [CBK017929], the viability at 28.5 h, 10 µM came to 86.3%.
As to `CC(=O)NC[C@H]1CN(c2ccc(-c3nnc(C(C)O)s3)c(F)c2)C(=O)O1` (stereo partly shown) [CBK017968], the viability at 28.5 h, 10 µM worked out at 99.6%.
On to `Cc1cc(N2C[C@H](CO)OC2=O)ccc1C#N` [CBK017978], for which the viability at 28.5 h, 10 µM was found to be 116%.
Take `O=C(NCc1ccc(Cl)cc1)c1cnc2ccc(C#CCO)cc2c1O` [CBK017979]: the viability at 28.5 h, 10 µM is 92.4%.
For `O=C(Nc1n[nH]c2ccccc12)c1ccccc1` [CBK017993], the viability at 28.5 h, 10 µM was determined as 90.1%.
For the compound `CC1CCn2c3c(c4cccc1c42)CCNCC3` (stereo not shown) [CBK018012C], the viability at 28.5 h, 10 µM turned out to be 97.4%.
Same read-out and setting: the figure for `CN1CCCN(Cc2ccc3c(c2)c(=O)c(C(=O)NCc2ccc(Cl)cc2)cn3C)CC1` [CBK018019] is 82.8%; for `O=C(CSc1nc2ccccc2o1)N1c2ccccc2Sc2ccc(C(F)(F)F)cc21` [CBK018044] it is 91.1%; for `CC(C(=O)N1c2ccccc2Sc2ccccc21)N1C(=O)c2ccccc2C1=O` (stereo not shown) [CBK018045] it is 105%.
`OCCOCCN1CCN(C(S)=Nc2ccccc2)CC1` [CBK018046]: the viability at 28.5 h, 10 µM turned out to be 84.7%.
Turning to `CCCc1nc(NC(C)=O)c(C#N)c(-c2ccco2)c1CC` [CBK018074], the viability at 28.5 h, 10 µM was found to be 100%.
As to `CN(C)CCOCCS(=O)(=O)c1ccc(N2CCC(c3ccc(Cl)cc3)=N2)cc1` [CBK018115], the viability at 28.5 h, 10 µM was 114%.
For the compound `COC(=O)c1ccc(S(=O)(=O)C(F)(F)F)cc1N` [CBK018172], the viability at 28.5 h, 10 µM worked out at 114%.
For `O=C(NCCN1CCOCC1)c1sc2cc(F)ccc2c1Cl` [CBK018212], the viability at 28.5 h, 10 µM was found to be 120%.
On the same count and under the same terms, the figure for `CC(C)(Cc1ccccc1)NCC(O)COc1ccc2c(c1)C1CCC2C1` (stereo not shown) [CBK018228C] is 86.4%; for `CC(C)NC(=O)N1CCc2sccc2C1c1ccc(Cl)cc1` (stereo not shown) [CBK018247] it is 108%.
As to `CSc1sc(C(=O)NC(=O)N2CCOCC2)c2c1-c1nocc1CC2` [CBK018284], the viability at 28.5 h, 10 µM came to 74.3%.
Still for that read-out and setting: the figure for `COc1cc2c(cc1OC)/C(=C/c1ccc[nH]1)C(=O)N2` [CBK018342] is 57.7%; for `O=C(O)c1sc2c(ccc3ccccc32)c1Br` [CBK018387] it is 90.4%; for `CCOc1ccc(S(=O)(=O)NCCCN2CCOCC2)c2ccccc12` [CBK018421] it is 89.8%.
Regarding `CCCn1cc(C(=O)NCc2ccc(Cl)cc2)c(=O)c2cc(CN3CCOCC3)sc21` [CBK018478], the viability at 28.5 h, 10 µM amounted to 93.8%.
Same read-out and setting: the figure for `CC(=O)NC[C@H]1CN(c2ccc3c(c2)CCN(C(C)=O)CC3)C(=O)O1` [CBK018491] is 86.6%.
For the compound `CC(=O)NC[C@H]1CN(c2ccc3c(c2)CCN(C(=O)Oc2ccccc2)CC3)C(=O)O1` [CBK018498], the viability at 28.5 h, 10 µM came to 91.2%.
As for `CC(=O)NC[C@H]1CN(c2ccc3c(c2)CCN(C(=O)Cc2ccccc2)CC3)C(=O)O1` [CBK018499], the viability at 28.5 h, 10 µM stood at 111%.
In the case of `CCN(CC)c1cc(N2CCCNCC2)ccc1S(=O)(=O)c1cccc(F)c1` [CBK018509C], the viability at 28.5 h, 10 µM is 101%.
The same measure, in the same setting: the figure for `O=C(Nc1ccc(O)cc1C(=O)O)c1cccc(Br)c1` [CBK018511] is 89.1%.
As to `NCc1cnc2c(c1)CCC2` [CBK018584G], the viability at 28.5 h, 10 µM came to 90.8%.
The same measure, in the same setting: the figure for `CCOC(=O)C1=NOC2COC3(CCN(c4ncccn4)CC3)OCC12` (stereo not shown) [CBK018602] is 94.3%; for `CCOC(=O)CSc1c2cc3c(nc2nc(=O)n1Cc1ccccc1)CC(C)(C)OC3` [CBK018608] it is 94.3%; for `Cc1c(Br)c(C(F)(F)F)nn1CC(=O)NCCN1CCOCC1` [CBK018700] it is 107%.
As to `Cc1cc(NC(=O)Cn2nc(C(F)(F)F)c(Cl)c2C)no1` [CBK018709], the viability at 28.5 h, 10 µM was determined as 87.3%.
On the same count and under the same terms, the figure for `Cc1cccc(C(=O)N/N=C/c2ccoc2)c1O` [CBK018727] is 90.7%; for `Cc1[nH]c(=O)c(S(=O)(=O)c2ccccc2)c(C)c1Cl` [CBK018736] it is 83.1%; for `Oc1ccc(C2N=C(c3ccccc3)N=C(c3ccccc3)N2)cc1` (stereo not shown) [CBK018755] it is 95.4%.
`c1cc2c(cc1CNc1nnn[nH]1)OCO2` [CBK018783]: the viability at 28.5 h, 10 µM is 91.5%.
Take `CSc1cc(CC(C)(C)C)c2cccc(F)c2n1` [CBK018791]: the viability at 28.5 h, 10 µM came out at 99.8%.
In the case of `OCc1nc(-c2cccnc2)co1` [CBK018811], the viability at 28.5 h, 10 µM was 106%.
As to `CN(C)c1nc(N(C)C)n(Cc2ccc(F)cc2)n1` [CBK018839], the viability at 28.5 h, 10 µM stood at 89.3%.
On to `CCOC(=O)c1nnsc1Sc1ccc(C)cc1` [CBK018867], for which the viability at 28.5 h, 10 µM turned out to be 89.6%.
On to `Cn1/c(=N\C(=O)c2cccs2)sc2cc(Br)ccc21` [CBK018873], for which the viability at 28.5 h, 10 µM stood at 102%.
Consider `CCCN(Cc1ccoc1)CC1CC1` [CBK018931], for which the viability at 28.5 h, 10 µM came to 94.6%.
With `Clc1ccc(-c2nn[nH]n2)c(Cl)c1` [CBK018932], the viability at 28.5 h, 10 µM is 89.7%.
Consider `O=c1nc(-c2cc(Br)cs2)[nH]c2ccc(Cl)cc12` [CBK018959], for which the viability at 28.5 h, 10 µM came to 90.5%.
For `CCOC(=O)c1cnc(SC)nc1N1CCOCC1` [CBK018971], the viability at 28.5 h, 10 µM amounted to 90.7%.
For `C=CCNc1nc(N)c(/C(N)=N\C#N)s1` [CBK019028], the viability at 28.5 h, 10 µM came out at 99.3%.
On to `CC1(C)NC(=O)N(CC(O)COc2cc3ccccc3cc2C(=O)N2CCCCC2)C1=O` (stereo not shown) [CBK019029], for which the viability at 28.5 h, 10 µM was 120%.
Still for that read-out and setting: the figure for `Nc1nonc1NC(=O)c1ccccc1Cl` [CBK019040] is 99.3%; for `Cc1nc2n(n1)C1=CC(C)(C)CC(=O)C1=NN2` [CBK019050] it is 89.2%; for `C#CCN1C(=O)C2(OCCO2)c2cccc(C)c21` [CBK019069] it is 95.1%.
With `Clc1ccccc1COc1cccc(/C=N/Nc2nc(N3CCCC3)nc(N3CCCC3)n2)c1` [CBK019076], the viability at 28.5 h, 10 µM amounted to 89.8%.
With `CCCC1C(C(N)=O)=C(C)NC(C)=C1C(N)=O` [CBK019102], the viability at 28.5 h, 10 µM is 105%.
Consider `Clc1nsnc1N1CCOCC1` [CBK019133], for which the viability at 28.5 h, 10 µM stood at 101%.
For the compound `COc1ccc(C2(C(F)(F)F)NC(=O)N3CCN=C3S2)cc1` (stereo not shown) [CBK019170], the viability at 28.5 h, 10 µM was 106%.
`CCCCOC(=O)CCn1c(=S)oc2ccccc21` [CBK019181]: the viability at 28.5 h, 10 µM came to 87.9%.
In the case of `Cc1nccn1C(=O)NC1CCCCC1` [CBK019187], the viability at 28.5 h, 10 µM is 81.8%.
As to `CC1=CC[C@H]2COC(CN3CCOC3C(C)C)[C@@H]1C2` (stereo partly shown) [CBK019189], the viability at 28.5 h, 10 µM stood at 122%.
For `O=S(=O)(c1ccc2c(c1)nc1n2CCC1)N1CCOCC1` [CBK019200], the viability at 28.5 h, 10 µM stood at 49.6%.
As to `COC(=O)Nc1cc2sccc2nc1C(F)(F)F` [CBK019229], the viability at 28.5 h, 10 µM worked out at 80%.
Take `N#Cc1sc2c(c1NC(=O)C(F)(F)F)CCCC2` [CBK019233]: the viability at 28.5 h, 10 µM was 92.1%.
Take `Nc1csc(C2CCOCC2)n1` [CBK019258]: the viability at 28.5 h, 10 µM turned out to be 77.3%.
For the compound `NC(=O)c1c(N)c(C(N)=S)n2c1CCC2` [CBK019270], the viability at 28.5 h, 10 µM was 98.1%.
For `CC1(Cc2ccn[nH]2)SCCCS1` [CBK019308C], the viability at 28.5 h, 10 µM amounted to 109%.
On the same count and under the same terms, the figure for `CCSC(SCC)c1ccnn1-c1ccccc1` [CBK019332] is 87.1%.
For `COc1cc(C2CN=NC23Cc2ccccc2C3=O)cc(OC)c1OC` (stereo not shown) [CBK019341], the viability at 28.5 h, 10 µM came to 90.4%.
On to `CC(C)N1CCC(=NNC(=O)C(O)c2ccccc2)CC1` (stereo not shown) [CBK019361], for which the viability at 28.5 h, 10 µM stood at 110%.
The same measure, in the same setting: the figure for `O=S(=O)(Cc1ccc(Br)cc1F)c1ccccn1` [CBK019368] is 90.4%; for `COc1ccc(C2CC(Cn3cc(C(C)=O)c(=O)[nH]c3=O)ON2C)cc1` (stereo not shown) [CBK019386] it is 95.7%; for `COCCOc1nnc(C)c2ccccc12` [CBK019388] it is 93.6%.
As to `O=C(c1cccs1)N1CCCN(c2nccc(C(F)(F)F)n2)CC1` [CBK019390], the viability at 28.5 h, 10 µM amounted to 89.4%.
`OCC(O)/C=N/Nc1nc(N2CCCCC2)nc(N2CCCCC2)n1` (stereo not shown) [CBK019423]: the viability at 28.5 h, 10 µM turned out to be 107%.

Staying with this data set, now noted: human, hela cells, % viability, bulk resorufin, single well.
With `Cc1ccccc1N1C(=O)/C(=N\Nc2ccc(S(=O)(=O)O)cc2)C(=O)NC1=S` [CBK018165], the viability at 28.5 h, 10 µM came out at 97.7%.
